Source: PubChem BioAssay (NCI)
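Values below derive from 48-hour exposures of cells grown in 96-well plates, with endpoints linearly interpolated between the two concentrations bracketing the appropriate inhibition level. TGI is the concentration that stops growth completely.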

Legend:
Assay in all cases: NCI anticancer screen, dose series, 48 h
786-0 renal = tested on: 786-0 renal
A549 NSCLC = tested on: A549 NSCLC
ACHN renal = tested on: ACHN renal
BT-549 breast = tested on: BT-549 breast
CAKI-1 renal = tested on: CAKI-1 renal
CCRF-CEM leukemia = tested on: CCRF-CEM leukemia
COLO 205 colon = tested on: COLO 205 colon
DU-145 prostate = tested on: DU-145 prostate
HCC-2998 colon = tested on: HCC-2998 colon
HCT-116 colon = tested on: HCT-116 colon
HCT-15 colon = tested on: HCT-15 colon
HL-60(TB) leukemia = tested on: HL-60(TB) leukemia
HOP-62 NSCLC = tested on: HOP-62 NSCLC
HOP-92 NSCLC = tested on: HOP-92 NSCLC
HS 578T breast = tested on: HS 578T breast
HT29 colon = tested on: HT29 colon
IGROV1 ovarian = tested on: IGROV1 ovarian
K-562 leukemia = tested on: K-562 leukemia
KM12 colon = tested on: KM12 colon
LOX IMVI melanoma = tested on: LOX IMVI melanoma
M14 melanoma = tested on: M14 melanoma
MALME-3M melanoma = tested on: MALME-3M melanoma
MCF7 breast = tested on: MCF7 breast
MDA-MB-231 breast = tested on: MDA-MB-231 breast
MDA-MB-435 = tested on: MDA-MB-435
MDA-N = tested on: MDA-N
MOLT-4 leukemia = tested on: MOLT-4 leukemia
NCI-H23 lung = tested on: NCI-H23 lung
NCI-H522 lung = tested on: NCI-H522 lung
NCI/ADR-RES ovarian = tested on: NCI/ADR-RES ovarian
OVCAR-3 ovarian = tested on: OVCAR-3 ovarian
OVCAR-4 ovarian = tested on: OVCAR-4 ovarian
OVCAR-8 ovarian = tested on: OVCAR-8 ovarian
PC-3 prostate = tested on: PC-3 prostate
RPMI-8226 leukemia = tested on: RPMI-8226 leukemia
SF-268 CNS = tested on: SF-268 CNS
SF-295 CNS = tested on: SF-295 CNS
SF-539 CNS = tested on: SF-539 CNS
SK-MEL-28 melanoma = tested on: SK-MEL-28 melanoma
SK-MEL-5 melanoma = tested on: SK-MEL-5 melanoma
SK-OV-3 ovarian = tested on: SK-OV-3 ovarian
SN12C renal = tested on: SN12C renal
SNB-19 CNS = tested on: SNB-19 CNS
SNB-75 CNS = tested on: SNB-75 CNS
SR leukemia = tested on: SR leukemia
SW-620 colon = tested on: SW-620 colon
T-47D breast = tested on: T-47D breast
TK-10 renal = tested on: TK-10 renal
U251 CNS = tested on: U251 CNS
UACC-257 melanoma = tested on: UACC-257 melanoma
UACC-62 melanoma = tested on: UACC-62 melanoma
A498 renal = tested on: A498 renal
NCI-H226 lung = tested on: NCI-H226 lung
NCI-H460 lung = tested on: NCI-H460 lung
OVCAR-5 ovarian = tested on: OVCAR-5 ovarian
RXF 393 renal = tested on: RXF 393 renal
SK-MEL-2 melanoma = tested on: SK-MEL-2 melanoma
UO-31 renal = tested on: UO-31 renal

## O=C(CC(O)(C(F)(F)F)C(F)(F)F)c1cccs1
786-0 renal
  TGI: > 10 µM
A549 NSCLC
  TGI: > 10 µM
ACHN renal
  TGI: > 10 µM
BT-549 breast
  TGI: > 10 µM
CAKI-1 renal
  TGI: > 10 µM
CCRF-CEM leukemia
  TGI: > 10 µM
COLO 205 colon
  TGI: > 10 µM
DU-145 prostate
  TGI: > 10 µM
HCC-2998 colon
  TGI: > 10 µM
HCT-116 colon
  TGI: > 10 µM
HCT-15 colon
  TGI: > 10 µM
HL-60(TB) leukemia
  TGI: > 10 µM
HOP-62 NSCLC
  TGI: > 10 µM
HOP-92 NSCLC
  TGI: > 10 µM
HS 578T breast
  TGI: > 10 µM
HT29 colon
  TGI: > 10 µM
IGROV1 ovarian
  TGI: > 10 µM
K-562 leukemia
  TGI: > 10 µM
KM12 colon
  TGI: > 10 µM
LOX IMVI melanoma
  TGI: > 10 µM
M14 melanoma
  TGI: > 10 µM
MALME-3M melanoma
  TGI: > 10 µM
MCF7 breast
  TGI: > 10 µM
MDA-MB-231 breast
  TGI: > 10 µM
MDA-MB-435
  TGI: > 10 µM
MDA-N
  TGI: > 10 µM
MOLT-4 leukemia
  TGI: > 10 µM
NCI-H23 lung
  TGI: > 10 µM
NCI-H522 lung
  TGI: > 10 µM
NCI/ADR-RES ovarian
  TGI: > 10 µM
OVCAR-3 ovarian
  TGI: > 10 µM
OVCAR-4 ovarian
  TGI: > 10 µM
OVCAR-8 ovarian
  TGI: > 10 µM
PC-3 prostate
  TGI: > 10 µM
RPMI-8226 leukemia
  TGI: > 10 µM
SF-268 CNS
  TGI: > 10 µM
SF-295 CNS
  TGI: > 10 µM
SF-539 CNS
  TGI: > 10 µM
SK-MEL-28 melanoma
  TGI: > 10 µM
SK-MEL-5 melanoma
  TGI: > 10 µM
SK-OV-3 ovarian
  TGI: > 10 µM
SN12C renal
  TGI: > 10 µM
SNB-19 CNS
  TGI: > 10 µM
SNB-75 CNS
  TGI: > 10 µM
SR leukemia
  TGI: > 10 µM
SW-620 colon
  TGI: > 10 µM
T-47D breast
  TGI: > 10 µM
TK-10 renal
  TGI: > 10 µM
U251 CNS
  TGI: > 10 µM
UACC-257 melanoma
  TGI: > 10 µM
UACC-62 melanoma
  TGI: > 10 µM

## O=C1CC(=O)NC(=NN2C(=O)CSC2c2ccc(Cl)cc2)N1 (stereo unspecified)
786-0 renal
  TGI: > 100 µM
A498 renal
  TGI: > 100 µM
A549 NSCLC
  TGI: > 100 µM
ACHN renal
  TGI: > 100 µM
BT-549 breast
  TGI: > 100 µM
CAKI-1 renal
  TGI: > 100 µM
CCRF-CEM leukemia
  TGI: 83.3 µM
COLO 205 colon
  TGI: > 100 µM
DU-145 prostate
  TGI: > 100 µM
HCC-2998 colon
  TGI: > 100 µM
HCT-116 colon
  TGI: > 100 µM
HCT-15 colon
  TGI: > 100 µM
HOP-62 NSCLC
  TGI: 60.9 µM
HOP-92 NSCLC
  TGI: > 100 µM
HS 578T breast
  TGI: > 100 µM
HT29 colon
  TGI: > 100 µM
IGROV1 ovarian
  TGI: > 100 µM
K-562 leukemia
  TGI: > 100 µM
KM12 colon
  TGI: > 100 µM
M14 melanoma
  TGI: > 100 µM
MALME-3M melanoma
  TGI: > 100 µM
MCF7 breast
  TGI: > 100 µM
MDA-MB-231 breast
  TGI: > 100 µM
MDA-MB-435
  TGI: > 100 µM
MDA-N
  TGI: > 100 µM
MOLT-4 leukemia
  TGI: > 100 µM
NCI-H226 lung
  TGI: > 100 µM
NCI-H23 lung
  TGI: > 100 µM
NCI-H460 lung
  TGI: > 100 µM
NCI-H522 lung
  TGI: > 100 µM
NCI/ADR-RES ovarian
  TGI: > 100 µM
OVCAR-3 ovarian
  TGI: > 100 µM
OVCAR-4 ovarian
  TGI: > 100 µM
OVCAR-5 ovarian
  TGI: > 100 µM
OVCAR-8 ovarian
  TGI: > 100 µM
PC-3 prostate
  TGI: > 100 µM
RPMI-8226 leukemia
  TGI: > 100 µM
RXF 393 renal
  TGI: > 100 µM
SF-268 CNS
  TGI: > 100 µM
SF-295 CNS
  TGI: > 100 µM
SF-539 CNS
  TGI: > 100 µM
SK-MEL-2 melanoma
  TGI: > 100 µM
SK-MEL-28 melanoma
  TGI: > 100 µM
SK-MEL-5 melanoma
  TGI: > 100 µM
SK-OV-3 ovarian
  TGI: > 100 µM
SN12C renal
  TGI: 47.6 µM
SNB-75 CNS
  TGI: > 100 µM
SR leukemia
  TGI: > 100 µM
SW-620 colon
  TGI: > 100 µM
T-47D breast
  TGI: > 100 µM
TK-10 renal
  TGI: > 100 µM
U251 CNS
  TGI: > 100 µM
UACC-257 melanoma
  TGI: > 100 µM
UACC-62 melanoma
  TGI: > 100 µM
UO-31 renal
  TGI: > 100 µM
